Data from ChEMBL document CHEMBL4342440, “Potential cytotoxic and anti-metastatic effects of berberine on gynaecological cancers with drug-associated resistance” (Eur J Med Chem, 2020).

Experiments:
Ca-Ski [1] = test: Cytotoxicity against human CaSki cells measured after 48 hrs by SRB assay; assay type: functional, cell-based
HeLa [2] = test: Cytotoxicity against human HeLa cells measured after 48 hrs by SRB assay; assay type: functional, cell-based
Ca-Ski [3] = test: Cytotoxicity against human CaSki cells measured after 48 hrs by MTT assay; assay type: functional, cell-based
HeLa [4] = test: Cytotoxicity against human HeLa cells measured after 48 hrs by MTT assay; assay type: functional, cell-based
[5] = Drug excretion in rat feces; assay type: ADME, tissue-based; settings: faeces, read-out: Drug excretion
Vero = test: Cytotoxicity against African green monkey Vero cells measured after 48 hrs by MTT assay; assay type: cell-based; settings: Chlorocebus sabaeus
[6] = Drug excretion in rat urine; assay type: ADME, tissue-based; settings: read-out: Drug excretion
HeLa [7] = test: Induction of apoptosis in human HeLa cells measured at 40 mg/L after 48 hrs relative to control; assay type: functional
HeLa [8] = test: Induction of apoptosis in human HeLa cells measured at 20 mg/L after 48 hrs relative to control; assay type: functional
[9] = Drug excretion in rat bile; assay type: ADME, tissue-based; settings: read-out: Drug excretion
HeLa 229 = test: Cytotoxicity against human HeLa 229 cells measured after 48 hrs by MTT assay; assay type: functional, cell-based; settings: HeLa 229, 48 h

| Structure (SMILES) | IC50 (Ca-Ski [1]) [µg/mL] | IC50 (HeLa [2]) [µg/mL] | IC50 (HeLa [4]) [µg/mL] | other results |
| --- | --- | --- | --- | --- |
| COc1cc(CN2CCN(c3ccc(C)cc3C)CC2)c2cc3[n+](cc2c1O)CCc1cc2c(cc1-3)OCO2.[Cl-] | 3.41 to 6.08 | 4.35 to 6.32 |  |  |
| COc1cc(CN2CCN(c3ccc(Cl)cc3)CC2)c2cc3[n+](cc2c1O)CCc1cc2c(cc1-3)OCO2.[Cl-] |  |  | < 6 | IC50 (Ca-Ski [3]): < 6 µg/mL |
| COc1cc(CN2CCN(c3ccc(F)cc3F)CC2)c2cc3[n+](cc2c1O)CCc1cc2c(cc1-3)OCO2.[Cl-] | 3.41 to 6.08 | 4.35 to 6.32 |  |  |
| COc1cc(CN2CCN(c3ccccc3Cl)CC2)c2cc3[n+](cc2c1O)CCc1cc2c(cc1-3)OCO2.[Cl-] |  |  | < 6 | IC50 (Ca-Ski [3]): < 6 µg/mL |
| COc1ccc(N2CCN(Cc3cc(OC)c(O)c4c[n+]5c(cc34)-c3cc4c(cc3CC5)OCO4)CC2)c(OC)c1.[Cl-] | 3.41 to 6.08 | 4.35 to 6.32 |  |  |
| COc1cc(CN2CCN(c3ccc(OC(F)(F)F)cc3)CC2)c2cc3[n+](cc2c1O)CCc1cc2c(cc1-3)OCO2.[Cl-] |  |  | < 6 | IC50 (Ca-Ski [3]): < 6 µg/mL |
| COc1cc(CN2CCN(c3ccccc3F)CC2)c2cc3[n+](cc2c1O)CCc1cc2c(cc1-3)OCO2.[Cl-] |  |  | < 6 | IC50 (Ca-Ski [3]): < 6 µg/mL |
| COc1cc(CN2CCN(c3ccc(C)cc3)CC2)c2cc3[n+](cc2c1O)CCc1cc2c(cc1-3)OCO2.[Cl-] |  |  | < 6 | IC50 (Ca-Ski [3]): < 6 µg/mL |
| COc1cc(CN2CCN(c3cccc(Cl)c3)CC2)c2cc3[n+](cc2c1O)CCc1cc2c(cc1-3)OCO2.[Cl-] |  |  | < 6 | IC50 (Ca-Ski [3]): < 6 µg/mL |
| COc1cc(CN2CCN(c3ccccc3[N+](=O)[O-])CC2)c2cc3[n+](cc2c1O)CCc1cc2c(cc1-3)OCO2.[Cl-] |  |  | < 6 | IC50 (Ca-Ski [3]): < 6 µg/mL |
| COc1cc(CN2CCN(c3ccc(C(F)(F)F)cc3)CC2)c2cc3[n+](cc2c1O)CCc1cc2c(cc1-3)OCO2.[Cl-] |  |  | < 6 | IC50 (Ca-Ski [3]): < 6 µg/mL |
| COc1cc(CN2CCN(c3ccc(F)cc3)CC2)c2cc3[n+](cc2c1O)CCc1cc2c(cc1-3)OCO2.[Cl-] |  |  | < 6 | IC50 (Ca-Ski [3]): < 6 µg/mL |
| COc1cc(CN2CCN(c3cccc(Cl)c3Cl)CC2)c2cc3[n+](cc2c1O)CCc1cc2c(cc1-3)OCO2.[Cl-] | 3.41 to 6.08 | 4.35 to 6.32 |  |  |
| COc1cc(CN2CCN(c3ccc([N+](=O)[O-])cc3)CC2)c2cc3[n+](cc2c1O)CCc1cc2c(cc1-3)OCO2.[Cl-] |  |  | < 6 | IC50 (Ca-Ski [3]): < 6 µg/mL |
| COc1ccc2cc3[n+](cc2c1OCCCCCNNc1nc2ccccc2s1)CCc1cc2c(cc1-3)OCO2.[Cl-] | 5.31 | 5.47 |  |  |
| COc1ccc2nc(NCCCCCOc3c(OC)ccc4cc5[n+](cc34)CCc3cc4c(cc3-5)OCO4)sc2c1.[Cl-] | 5.31 | 5.47 |  |  |
| COc1cc(CN2CCN(c3ccc(Cl)c(Cl)c3)CC2)c2cc3[n+](cc2c1O)CCc1cc2c(cc1-3)OCO2.[Cl-] | 3.41 to 6.08 | 4.35 to 6.32 |  |  |
| COc1ccc2cc3[n+](cc2c1OCCCCCNc1nc2ccccc2s1)CCc1cc2c(cc1-3)OCO2.[Cl-] | 5.31 | 5.47 |  |  |

| Structure (SMILES) | IC50 (Ca-Ski [1]) [µg/mL] | IC50 (HeLa [2]) [µg/mL] | IC50 (HeLa [4]) [µg/mL] | other results |
| --- | --- | --- | --- | --- |
| COc1ccc2cc3[n+](cc2c1OCCCCCNc1nc2ccc(Cl)cc2s1)CCc1cc2c(cc1-3)OCO2.[Cl-] | 5.31 | 5.47 |  |  |
| COc1ccc2cc3[n+](cc2c1OCCCCCNc1nc2ccc(C(=O)O)cc2s1)CCc1cc2c(cc1-3)OCO2.[Cl-] | 5.31 | 5.47 |  |  |
| COc1cc(CN2CCN(c3cc(Cl)cc(Cl)c3)CC2)c2cc3[n+](cc2c1O)CCc1cc2c(cc1-3)OCO2.[Cl-] | 3.41 to 6.08 | 4.35 to 6.32 |  |  |
| COc1ccc2cc3[n+](cc2c1OCCCCCNc1nc2ccc(C)cc2s1)CCc1cc2c(cc1-3)OCO2.[Cl-] | 5.31 | 5.47 |  |  |
| COc1ccc2cc3[n+](cc2c1OCCCCCNc1nc2ccc(C(F)(F)F)cc2s1)CCc1cc2c(cc1-3)OCO2.[Cl-] | 5.31 | 5.47 |  |  |
| COc1cc(CN2CCN(c3cccc(C)c3C)CC2)c2cc3[n+](cc2c1O)CCc1cc2c(cc1-3)OCO2.[Cl-] | 3.41 to 6.08 | 4.35 to 6.32 |  |  |
| COc1cc(CN2CCN(c3cccc(F)c3F)CC2)c2cc3[n+](cc2c1O)CCc1cc2c(cc1-3)OCO2.[Cl-] | 3.41 to 6.08 | 4.35 to 6.32 |  |  |
| COc1ccc2cc3[n+](cc2c1OCCCCCNc1nc2c(F)cc(F)cc2s1)CCc1cc2c(cc1-3)OCO2.[Cl-] | 5.31 | 5.47 |  |  |
| COc1ccc2cc3[n+](cc2c1OCCCCCNc1nc2ccc(C#N)cc2s1)CCc1cc2c(cc1-3)OCO2.[Cl-] | 5.31 | 5.47 |  |  |
| COc1ccc2cc3[n+](cc2c1OCCCCCNc1nc2ccc(F)cc2s1)CCc1cc2c(cc1-3)OCO2.[Cl-] | 5.31 | 5.47 |  |  |
| COc1cc(CN2CCN(c3ccc(Cl)cc3Cl)CC2)c2cc3[n+](cc2c1O)CCc1cc2c(cc1-3)OCO2.[Cl-] | 3.41 to 6.08 | 4.35 to 6.32 |  |  |
| COc1ccc2cc3[n+](cc2c1OCCCCCNc1nc2ccc(I)cc2s1)CCc1cc2c(cc1-3)OCO2.[Cl-] | 5.31 | 5.47 |  |  |
| COc1ccc2cc3[n+](cc2c1OCCCCCNc1nc2ccc(Br)cc2s1)CCc1cc2c(cc1-3)OCO2.[Cl-] | 5.31 | 5.47 |  |  |
| CCOc1ccc2nc(NCCCCCOc3c(OC)ccc4cc5[n+](cc34)CCc3cc4c(cc3-5)OCO4)sc2c1.[Cl-] | 5.31 | 5.47 |  |  |
| COc1ccc2cc3[n+](cc2c1OCCCCCNc1nc2ccc([N+](=O)[O-])cc2s1)CCc1cc2c(cc1-3)OCO2.[Cl-] | 5.31 | 5.47 |  |  |
| COc1ccc2cc3[n+](cc2c1OC)CCc1cc2c(cc1-3)OCO2 [BERBERINE] |  |  | 12.1 | dose excreted [5]: 22.7%; IC50 (Vero): 71.1 µg/mL; dose excreted [6]: 0.0939%; Activity (HeLa [7]): 29.6%; Activity (HeLa [8]): 16.7%; dose excreted [9]: 22.8%; IC50 (HeLa 229): 42.9 µM |
| COc1c(O)ccc2cc3[n+](cc12)CCc1cc2c(cc1-3)OCO2.[Cl-] [THALIFENDINE] |  |  |  | dose excreted [9]: 83% |
